Assay results: ChEMBL document CHEMBL1201862, “PubChem BioAssay data set” (2004)
Values joined by “and” are separate entries in the source; they are usually repeats but may differ in a detail not shown here. Equal entries are not always repeated. Active and inactive are the calls of the source.

How the values were obtained:
Streptokinase A = biological target: T1, Streptokinase A (Streptococcus pyogenes serotype M1, UniProt P10520); test: viability-normalized secreted streptokinase activity reduction – plasminogen activation absorbance, OD405, dose response (AID 1914); assay type: functional, Streptococcus pyogenes M1 GAS;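 further: secreted streptokinase activity via plasminogen activation per viability signal from cell pellet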
T1 sequence (P10520 whole entry): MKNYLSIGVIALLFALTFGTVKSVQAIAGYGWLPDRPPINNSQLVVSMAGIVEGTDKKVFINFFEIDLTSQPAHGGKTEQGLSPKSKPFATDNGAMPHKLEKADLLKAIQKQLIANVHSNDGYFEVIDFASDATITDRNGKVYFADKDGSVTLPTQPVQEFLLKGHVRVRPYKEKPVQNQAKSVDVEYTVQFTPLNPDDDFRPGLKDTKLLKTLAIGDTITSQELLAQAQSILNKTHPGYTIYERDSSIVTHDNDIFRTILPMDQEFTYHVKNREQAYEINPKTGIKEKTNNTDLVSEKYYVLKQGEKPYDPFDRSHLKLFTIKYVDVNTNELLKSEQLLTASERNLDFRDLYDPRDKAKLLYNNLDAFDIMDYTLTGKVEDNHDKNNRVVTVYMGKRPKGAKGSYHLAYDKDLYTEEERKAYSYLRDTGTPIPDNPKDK

Streptococcus = test: GAS UMAA2166 growth inhibition – luminescence, BacTiterGlo, counter-screen for streptokinase expression inhibitor project, dose response (AID 1915); assay type: functional, organism-based;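 further: potency for reduction of bacterial viability or growth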
[1] = tested on: Streptococcus sp. 'group A'; test: Streptococcus pyogenes SK(-)GAS viability under kanamycin – luminescence, BacTiterGlo, confirmation, counter-screen for streptokinase expression inhibitor project, dose response (AID 1900); assay type: functional, organism-based
[2] = NIH3T3 cell viability loss – ATP luminescence, mouse fibroblasts, counter-screen, dose response (AID 2010); assay type: functional, cell-based;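 further: cells exposed to compound for about 90 hours before reading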
[3] = Trypanosoma cruzi growth suppression in host cells – NIH3T3 host cells, beta-gal luminescence, confirmation (AID 2044); assay type: functional, cell-based;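 further: intracellular parasites grown in NIH/3T3 mouse fibroblasts as host cells; luminescent beta-galactosidase reporter signal from transgenic T. cruzi replicating inside host cells; inhibitors lower the luminescence signal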
Cytochrome P450 3A4 = Cytochrome P450 3A4 (Homo sapiens, UniProt P08684);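 further: CYP3A4 tested as one member of a cytochrome P450 panel screen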
Sequence of Cytochrome P450 3A4 (P08684 whole entry): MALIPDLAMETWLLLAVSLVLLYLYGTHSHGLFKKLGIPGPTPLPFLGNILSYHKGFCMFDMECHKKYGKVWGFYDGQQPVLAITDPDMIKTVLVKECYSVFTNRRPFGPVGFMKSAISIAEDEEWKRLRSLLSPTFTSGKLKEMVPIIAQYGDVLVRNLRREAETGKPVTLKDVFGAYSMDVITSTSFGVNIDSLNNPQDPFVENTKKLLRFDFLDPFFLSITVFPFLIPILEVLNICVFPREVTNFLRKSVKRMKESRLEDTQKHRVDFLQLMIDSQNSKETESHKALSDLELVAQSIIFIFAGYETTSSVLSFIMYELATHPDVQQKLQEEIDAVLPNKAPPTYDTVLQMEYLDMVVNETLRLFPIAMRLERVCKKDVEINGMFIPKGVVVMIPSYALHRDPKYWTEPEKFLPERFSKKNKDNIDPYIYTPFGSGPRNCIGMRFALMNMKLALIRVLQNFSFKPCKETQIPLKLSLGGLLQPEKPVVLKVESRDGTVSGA

Cytochrome P450 2C19 = Cytochrome P450 2C19 (Homo sapiens, UniProt P33261); test: Cytochrome panel assay with activity outcomes. Panel member name: p450-cyp2c19 Compounds with AC50 equal or less than 10 uM are considered active; assay type: functional
Sequence of Cytochrome P450 2C19 (P33261 whole entry): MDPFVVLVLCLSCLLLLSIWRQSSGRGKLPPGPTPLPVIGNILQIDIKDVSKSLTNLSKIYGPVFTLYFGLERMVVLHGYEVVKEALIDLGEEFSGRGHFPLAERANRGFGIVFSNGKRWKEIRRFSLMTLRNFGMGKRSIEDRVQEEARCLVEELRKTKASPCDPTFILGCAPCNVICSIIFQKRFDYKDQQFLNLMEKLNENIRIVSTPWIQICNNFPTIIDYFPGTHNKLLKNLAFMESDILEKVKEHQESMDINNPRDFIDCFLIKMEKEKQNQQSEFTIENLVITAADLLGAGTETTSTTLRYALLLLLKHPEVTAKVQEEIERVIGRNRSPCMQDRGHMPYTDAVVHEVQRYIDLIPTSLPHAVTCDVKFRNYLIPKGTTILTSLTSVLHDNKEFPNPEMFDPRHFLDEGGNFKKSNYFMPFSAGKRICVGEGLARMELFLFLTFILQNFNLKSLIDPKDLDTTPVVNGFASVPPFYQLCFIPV

With `Brc1ccc(Nc2ncnc3[nH]ncc23)cc1` the EC50 (Streptokinase A) was > 150 µM (not active), the EC50 (Streptococcus) was 143 µM (active) and the EC50 [1] was 5.77 µM (active).
In the case of `O=C(NC1CCN(Cc2ccccc2)CC1)c1ccc2c(c1)nc(O)n2Cc1ccc(F)cc1`, the EC50 [2] was > 60 µM (inconclusive) and the EC50 [3] was 0.485 µM (active).
With `O=S(=O)(Cc1nnnn1-c1ccccc1)c1ccc(F)cc1` the EC50 (Streptokinase A) was > 150 µM (not active), the EC50 (Streptococcus) was > 150 µM (not active) and the EC50 [1] was > 150 µM (not active).
For `COc1cc(-c2nc(-c3ccc4c(c3)-c3ccccc3S4(=O)=O)c(-c3ccccc3)[nH]2)cc(OC)c1OC`, the EC50 [2] was > 60 µM (not active) and the EC50 [3] was 1.81 µM (active).
With `CCSC1=NC2(CCCCC2)Nc2sc3c(c21)CCCC3` the EC50 [2] was 20.6 µM (active) and the EC50 [3] was 2.23 µM (active).
In the case of `CC(=O)Nc1ccc(C2C(=O)c3ccccc3C2=O)cc1`, the EC50 (Streptokinase A) was > 150 µM (not active), the EC50 (Streptococcus) was > 150 µM (not active) and the EC50 [1] was 31.3 µM (active).
In the case of `COc1ccc(C(CCN)c2ccc3c(c2)OCO3)cc1` (stereo unspecified), the EC50 [2] was > 60 µM (not active) and the EC50 [3] was 7.31 µM (active).
For `O=C(CSc1nnc(NC(=O)c2ccccc2[N+](=O)[O-])s1)NC1CCCC1`, the EC50 (Streptokinase A) was > 150 µM (not active), the EC50 (Streptococcus) was > 150 µM (not active) and the EC50 [1] was > 150 µM (not active).
For `Cc1ccc(NC(=O)C2CC2C)cc1S(=O)(=O)N1CCOCC1` (stereo unspecified), the EC50 [2] was > 30 µM (not active) and the EC50 [3] was 1.91 µM (active).
For `Oc1cc2c(c(Cl)c1O)CCNC[C@H]2c1ccccc1`, the AC50 (Cytochrome P450 3A4) was 39.8 µM (inconclusive) and 12.6 µM (inconclusive).
For `CN(C)Cc1ccccc1-c1cc(NCc2cccs2)ncn1`, the AC50 (Cytochrome P450 3A4) was 10 µM (inconclusive).
With `COc1ccccc1CCNC(=O)C(=O)c1cn(CC(=O)N2CCCC2)c2ccccc12` the EC50 (Streptokinase A) was > 150 µM (not active), the EC50 (Streptococcus) was > 150 µM (not active) and the EC50 [1] was > 150 µM (not active).
In the case of `Cc1cc(C(F)F)n2nc(C(=O)Nc3cccnc3Cl)nc2n1`, the AC50 (Cytochrome P450 2C19) was “inconclusive”.
In the case of `Cc1[nH]c2ccccc2c1C(=O)COC(=O)c1ccc2c(=O)n3c(nc2c1)CCC3`, the EC50 (Streptococcus) was 1.99 µM (active) and the EC50 [1] was 1.74 µM (active).
In the case of `COc1ccc(C2CC(c3ccc(Br)cc3)=NN2C(=O)CSC2=NN3CCCC(=O)N=C3S2)cc1` (stereo unspecified), the EC50 [2] was > 60 µM (not active) and the EC50 [3] was 4.07 µM (active).
In the case of `COC(=O)[C@@]1(Cc2ccc(OC)cc2)[C@H]2c3cc(C(=O)N4CCCC4)n(Cc4ccc(OC)c(OC)c4)c3C[C@H]2CN1C(=O)c1ccccc1`, the AC50 (Cytochrome P450 2C19; read-out: AC50) was 15.8 µM (inconclusive).
For `COc1cc(C(=O)Nc2nc(-c3ccc(C)cc3)cs2)ccc1OCC(=O)N1CCOCC1`, the EC50 [2] was > 60 µM (inconclusive) and the EC50 [3] was 2.04 µM (active).
For `CC(C)NC(=O)N1CCC2(CC1)CCN(C(=O)c1ccncc1)CC2`, the AC50 (Cytochrome P450 3A4) was 25.1 µM (inconclusive).
With `CN(C)c1ncc2nc(CCc3ccccc3)c(=O)n(CCC#N)c2n1` the AC50 (Cytochrome P450 3A4) was 20 µM (inconclusive).
With `CCOC(=O)N1CCN(C(=O)c2cc3n(n2)C(C(F)(F)F)CC(c2ccc4c(c2)OCO4)N3)CC1` (stereo unspecified) the EC50 (Streptokinase A) was > 150 µM (not active), the EC50 (Streptococcus) was > 150 µM (not active) and the EC50 [1] was 62.1 µM (active).
For `CC(C)C[C@H](NC(=O)c1[nH]cnc1C(=O)Nc1ccccc1)C(=O)OC(C)(C)C`, the EC50 (Streptococcus) was 7.19 µM (active) and the EC50 [1] was 3.21 µM (active).
In the case of `O=[N+]([O-])c1nn(-c2ccccc2)[n+]([O-])c1N1CCN(c2ccccc2F)CC1`, the EC50 [2] was > 60 µM (not active) and the EC50 [3] was 0.458 µM (active).
In the case of `CC(C)=CCC/C(C)=C/CO/N=C1/C[C@@H](O)[C@@H](O)[C@@H]2[C@@H]3C(=O)N(Cc4ccccc4)C(=O)[C@H]3CC[C@H]12`, the AC50 (Cytochrome P450 2C19; read-out: AC50) was 0.0631 µM (inconclusive).
In the case of `CCc1ccc(CNc2ccc3c(c2)ncn3C(C)(C)C)cc1`, the EC50 (Streptokinase A) was > 150 µM (not active), the EC50 (Streptococcus) was > 150 µM (not active) and the EC50 [1] was 10.7 µM (active).
In the case of `CCOC(=O)c1c(NC(=O)CN2CCCCC2)sc2c1CCN(C(=O)OCC)C2`, the EC50 [2] was > 60 µM (not active) and the EC50 [3] was 1.13 µM (active).
With `Cc1cccc(NC(=O)NCc2ccc3c(c2)OCO3)c1` the EC50 (Streptokinase A) was > 150 µM (not active), the EC50 (Streptococcus) was > 150 µM (not active) and the EC50 [1] was > 150 µM (not active).
With `CC(C)Oc1cccc(C(=O)NC(=S)N2CCN(c3ccc(C(F)(F)F)cc3[N+](=O)[O-])CC2)c1` the AC50 (Cytochrome P450 3A4) was 14.1 µM (inconclusive).
In the case of `CNc1ncnc2ccc(-c3ccccc3C#N)cc12`, the AC50 (Cytochrome P450 3A4) was 12.6 µM (inconclusive).
With `O=C(Nc1ccc(N2CCCCC2)c(Cl)c1)c1ccc(N2CCOCC2)c([N+](=O)[O-])c1` the EC50 [2] was > 60 µM (not active) and the EC50 [3] was 1.06 µM (active).
In the case of `O=c1cnc2cnc(Oc3ccccc3)nc2n1Cc1ccc(F)cc1`, the AC50 (Cytochrome P450 3A4) was 20 µM (inconclusive).
In the case of `COCC1CCCCN1C(=O)c1ccc2oc(CCCc3ccccc3)nc2c1` (stereo unspecified), the EC50 (Streptokinase A) was > 150 µM (not active), the EC50 (Streptococcus) was > 150 µM (not active) and the EC50 [1] was 98.8 µM (active).
For `COc1ccc(C(=O)c2ccc(N3CCN(C4CC(=O)NC4=O)CC3)cc2)cc1F` (stereo unspecified), the EC50 (Streptokinase A) was > 150 µM (not active), the EC50 (Streptococcus) was 33.3 µM (active) and the EC50 [1] was 2.99 µM (active).
With `S=C(Nc1ccccc1Cl)N(Cc1ccccc1)Cc1cccnc1` the EC50 [2] was > 60 µM (not active) and the EC50 [3] was 0.992 µM (active).
In the case of `COc1ccc(CC(=O)NCC2CCCN(Cc3cc(OC)cc(OC)c3)C2)cc1` (stereo unspecified), the EC50 [2] was > 30 µM (not active) and the EC50 [3] was 0.197 µM (active).
With `COc1ccc(N(CC(=O)NCCSCc2cccc(Cl)c2)S(C)(=O)=O)cc1Cl` the EC50 (Streptokinase A) was 23.2 µM (active), the EC50 (Streptococcus) was 79.6 µM (active) and the EC50 [1] was 13 µM (active).
With `O=C(NC(=S)NNC(=O)c1cccs1)c1ccco1` the EC50 (Streptokinase A) was > 150 µM (not active), the EC50 (Streptococcus) was 36.2 µM (active) and the EC50 [1] was 7.02 µM (active).
In the case of `CCCOc1ccc(-c2nn(-c3ccccc3)cc2/C=C2\SC(N)=NC2=O)cc1C`, the EC50 [2] was > 60 µM (not active) and the EC50 [3] was 1.04 µM (active).
For `COc1cc(-c2nc3ccccn3c2NCc2ccccc2)ccc1SC1CCCCC1`, the EC50 [2] was > 60 µM (not active) and the EC50 [3] was 0.954 µM (active).
For `Cc1nc(N2CCN(c3ccccc3O)CC2)c2c(-c3ccccc3)csc2n1`, the EC50 (Streptokinase A) was 34.4 µM (active), the EC50 (Streptococcus) was > 150 µM (not active) and the EC50 [1] was 15.1 µM (active).
In the case of `CC(CCc1ccccc1)NC(=O)/C=C/c1ccccc1` (stereo unspecified), the AC50 (Cytochrome P450 3A4) was 25.1 µM (inconclusive).
With `N#Cc1ccc(CN2CCC3(CC2)CCN(S(=O)(=O)c2ccccc2)CC3)cc1` the AC50 (Cytochrome P450 3A4) was 20 µM (inconclusive).
In the case of `CC(C)=NO[C@@H](C)CN1CCCCc2nc(C)c(C)cc21`, the AC50 (Cytochrome P450 3A4) was 3.98 µM (inconclusive).
With `COC(=O)c1ccc(Oc2nc3ccccc3n3c(C)nnc23)cc1` the EC50 (Streptokinase A) was > 150 µM (not active), the EC50 (Streptococcus) was 61.2 µM (active) and the EC50 [1] was 3.82 µM (active).
For `Cc1ccc(C(=O)NCc2ccc(N3CCN(C(=O)OC(C)(C)C)CC3)cc2)cc1`, the AC50 (Cytochrome P450 2C19; read-out: AC50) was 14.1 µM (inconclusive).
With `Cc1cc(C)cc(C(=O)N2CCC(CCC(=O)NC3CC3)CC2)c1` the EC50 (Streptokinase A) was > 150 µM (not active), the EC50 (Streptococcus) was > 150 µM (not active) and the EC50 [1] was > 150 µM (not active).
With `CO/C(O)=C1\C(C)=NC2=C(C(=O)c3ccccc32)C1c1ccc(-c2ccc(C(=O)O)cc2)o1` (stereo unspecified) the EC50 (Streptokinase A) was > 150 µM (not active), the EC50 (Streptococcus) was 69 µM (active) and the EC50 [1] was 3.77 µM (active).
With `COc1cc(COc2cc(N)c(Cl)cc2C(=O)CCC2CCN(CCNS(C)(=O)=O)CC2)cc(OC)c1` the AC50 (Cytochrome P450 2C19; read-out: AC50) was 15.8 µM (inconclusive).
With `CC(C)=CCC/C(C)=C/CC/C(C)=C/CSc1ccccc1C(=O)O` [SALIRASIB] the AC50 (Cytochrome P450 3A4) was 31.6 µM (inconclusive).
